Measured values from ChEMBL document CHEMBL1201862, “PubChem BioAssay data set” (2004).
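Exposure lasted 48 hours, with cells grown in 96-well plates and compounds tested at five concentrations. GI50: concentration for 50% inhibition of growth.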 Activity calls are given as the source filed them. Rule as the data show it: active = GI50 up to about 1.1 µM and inactive = higher.

What was measured:
Test in all cases: inhibition of tumour cell growth, NCI panel, 48 h
[1] = tested on: OVCAR-5
[2] = tested on: SK-MEL-28
[3] = tested on: HT-29
[4] = tested on: RXF 393
[5] = tested on: CCRF-CEM
[6] = tested on: NCI-H23
[7] = tested on: NCI/ADR-RES
[8] = tested on: MOLT-4
[9] = tested on: CAKI-1
[10] = tested on: T47D
[11] = tested on: COLO 205
[12] = tested on: A549
[13] = tested on: OVCAR-3
[14] = tested on: SF-539
[15] = tested on: SR
[16] = tested on: MDA-MB-435
[17] = tested on: RPMI-8226
[18] = tested on: K562
[19] = tested on: HCC 2998
[20] = tested on: SK-MEL-2
[21] = tested on: SF-268
[22] = tested on: M14
[23] = tested on: SF-295
[24] = tested on: KM12
[25] = tested on: NCI-H226
[26] = tested on: HCT-116
[27] = tested on: UACC-257
[28] = tested on: OVCAR-8
[29] = tested on: SK-MEL-5
[30] = tested on: Hs-578T
[31] = tested on: OVCAR-4
[32] = tested on: IGROV-1
[33] = tested on: A498
[34] = tested on: MDA-N
[35] = tested on: SW-620
[36] = tested on: MDA-MB-231
[37] = tested on: SNB-19
[38] = tested on: U-251
[39] = tested on: HOP-92
[40] = tested on: HCT-15
[41] = tested on: EKVX
[42] = tested on: PC-3
[43] = tested on: SN12C
[44] = tested on: HOP-62
[45] = tested on: ACHN
[46] = tested on: 786-0
[47] = tested on: HL-60
[48] = tested on: UO-31
[49] = tested on: MCF7
[50] = tested on: SK-OV-3
[51] = tested on: NCI-H460
[52] = tested on: UACC-62
[53] = tested on: DU-145
[54] = tested on: TK-10
[55] = tested on: Malme-3M
[56] = tested on: SNB-75
[57] = tested on: BT-549
[58] = tested on: NCI-H522

C=C(C)C(O)C(O)c1c(OC)ccc2ccc(=O)oc12 (stereo unspecified)
GI50 [1]: > 100 µM (inactive)
GI50 [2]: > 100 µM (inactive)
GI50 [3]: > 100 µM (inactive)
GI50 [4]: > 100 µM (inactive)
GI50 [5]: > 100 µM (inactive)
GI50 [6]: > 100 µM (inactive)
GI50 [7]: > 100 µM (inactive)
GI50 [8]: > 100 µM (inactive)
GI50 [9]: > 100 µM (inactive)
GI50 [10]: > 100 µM (inactive)
GI50 [11]: > 100 µM (inactive)
GI50 [12]: > 100 µM (inactive)
GI50 [13]: > 100 µM (inactive)
GI50 [14]: > 100 µM (inactive)
GI50 [15]: > 100 µM (inactive)
GI50 [16]: > 100 µM (inactive)
GI50 [17]: > 100 µM (inactive)
GI50 [18]: > 100 µM (inactive)
GI50 [19]: > 100 µM (inactive)
GI50 [20]: > 100 µM (inactive)
GI50 [21]: > 100 µM (inactive)
GI50 [22]: > 100 µM (inactive)
GI50 [23]: > 100 µM (inactive)
GI50 [24]: > 100 µM (inactive)
GI50 [25]: > 100 µM (inactive)
GI50 [26]: > 100 µM (inactive)
GI50 [27]: > 100 µM (inactive)
GI50 [28]: > 100 µM (inactive)
GI50 [29]: > 100 µM (inactive)
GI50 [30]: > 100 µM (inactive)
GI50 [31]: > 100 µM (inactive)
GI50 [32]: > 100 µM (inactive)
GI50 [33]: > 100 µM (inactive)
GI50 [34]: > 100 µM (inactive)
GI50 [35]: > 100 µM (inactive)
GI50 [36]: > 100 µM (inactive)
GI50 [37]: > 100 µM (inactive)
GI50 [38]: > 100 µM (inactive)
GI50 [39]: > 100 µM (inactive)
GI50 [40]: > 100 µM
GI50 [41]: > 100 µM (inactive)
GI50 [42]: > 100 µM (inactive)
GI50 [43]: > 100 µM (inactive)
GI50 [44]: > 100 µM (inactive)
GI50 [45]: > 100 µM (inactive)
GI50 [46]: > 100 µM (inactive)
GI50 [47]: > 100 µM (inactive)
GI50 [48]: > 100 µM (inactive)
GI50 [49]: > 100 µM (inactive)
GI50 [50]: > 100 µM (inactive)
GI50 [51]: > 100 µM (inactive)
GI50 [52]: > 100 µM (inactive)
GI50 [53]: > 100 µM (inactive)
GI50 [54]: > 100 µM (inactive)
GI50 [55]: > 100 µM (inactive)
GI50 [56]: > 100 µM (inactive)
GI50 [57]: > 100 µM (inactive)
GI50 [58]: > 100 µM (inactive)

CCOC(=O)CN1C(=O)c2c(c(C)n(-c3ccccc3)c2C)C1=O
GI50 [1]: > 100 µM (inactive)
GI50 [2]: > 100 µM (inactive)
GI50 [3]: > 100 µM (inactive)
GI50 [4]: 26 µM (inactive)
GI50 [5]: > 100 µM (inactive)
GI50 [6]: > 100 µM (inactive)
GI50 [7]: > 100 µM (inactive)
GI50 [8]: > 100 µM (inactive)
GI50 [9]: > 100 µM (inactive)
GI50 [10]: > 100 µM (inactive)
GI50 [11]: > 100 µM (inactive)
GI50 [12]: > 100 µM (inactive)
GI50 [13]: > 100 µM (inactive)
GI50 [14]: 91.2 µM (inactive)
GI50 [15]: > 100 µM (inactive)
GI50 [16]: > 100 µM (inactive)
GI50 [17]: > 100 µM (inactive)
GI50 [18]: > 100 µM (inactive)
GI50 [19]: > 100 µM (inactive)
GI50 [20]: > 100 µM (inactive)
GI50 [21]: > 100 µM (inactive)
GI50 [22]: > 100 µM (inactive)
GI50 [23]: > 100 µM (inactive)
GI50 [24]: > 100 µM (inactive)
GI50 [25]: > 100 µM (inactive)
GI50 [26]: > 100 µM (inactive)
GI50 [27]: > 100 µM (inactive)
GI50 [28]: > 100 µM (inactive)
GI50 [29]: > 100 µM (inactive)
GI50 [30]: > 100 µM (inactive)
GI50 [31]: > 100 µM (inactive)
GI50 [32]: > 100 µM (inactive)
GI50 [33]: > 100 µM (inactive)
GI50 [34]: > 100 µM (inactive)
GI50 [35]: > 100 µM (inactive)
GI50 [36]: > 100 µM (inactive)
GI50 [37]: > 100 µM (inactive)
GI50 [38]: 73.5 µM (inactive)
GI50 [39]: > 100 µM (inactive)
GI50 [40]: > 100 µM
GI50 [41]: > 100 µM (inactive)
GI50 [42]: > 100 µM (inactive)
GI50 [43]: > 100 µM (inactive)
GI50 [44]: 36 µM (inactive)
GI50 [45]: > 100 µM (inactive)
GI50 [46]: > 100 µM (inactive)
GI50 [47]: > 100 µM (inactive)
GI50 [48]: > 100 µM (inactive)
GI50 [49]: > 100 µM (inactive)
GI50 [50]: > 100 µM (inactive)
GI50 [51]: > 100 µM (inactive)
GI50 [52]: > 100 µM (inactive)
GI50 [53]: > 100 µM (inactive)
GI50 [54]: > 100 µM (inactive)
GI50 [55]: > 100 µM (inactive)
GI50 [56]: 82.8 µM (inactive)
GI50 [57]: > 100 µM (inactive)
GI50 [58]: > 100 µM (inactive)
